Target: T1, REV-ERBα LBD (human; residues 281-614 Δ324-422) (Homo sapiens, UniProt P20393, DEL324-422)
T1 construct: 6×Histag-REV-ERBα LBD (human; residues 281-614 Δ324-422); made in house; host or cells: Escherichia coli
Assay: TR-FRET corepressor interaction assay (REV-ERBα LBD, FITC-SMRT peptide)
Format: biochemical
Settings: Table 2, read-out: REVERBα agonism (EC50 class, FRET assay)
Protocol: TR-FRET corepressor interaction assay. The time-resolved fluorescence resonance energy transfer (TR-FRET) assay was performed in black low-volume 384-well plates (Greiner). […] Ligand stocks were prepared via serial dilution in DMSO, added to wells in triplicate, and plates were incubated at 4° C. for 2 h and read using a BioTek Synergy Neo multimode plate reader. The Tb donor was excited at 340 nm; its fluorescence emission was monitored at 495 nm, and the acceptor FITC emission was measured at 520 nm; and the TR-FRET ratio was calculated as the signal at 520 nm divided by the signal at 495 nm. Data were plotted using GraphPad Prism as TR-FRET ratio vs. ligand concentration and fit to sigmoidal dose response curve equation.

T1 sequence (P20393 with tags, fused parts or gaps DEL324-422): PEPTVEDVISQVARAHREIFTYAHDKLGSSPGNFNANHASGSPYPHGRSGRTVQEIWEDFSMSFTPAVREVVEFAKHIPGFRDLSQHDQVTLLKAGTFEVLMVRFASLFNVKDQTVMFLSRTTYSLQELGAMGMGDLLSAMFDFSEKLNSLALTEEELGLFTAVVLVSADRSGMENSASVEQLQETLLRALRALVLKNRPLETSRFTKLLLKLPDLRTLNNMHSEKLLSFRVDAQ
T1 sequence (Q9Y618 2335-2356 partner limits assumed): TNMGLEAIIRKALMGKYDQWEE

| EC50 [nM] | Structure (SMILES) |
| --- | --- |
| < 500 | Cc1ccccc1-c1ccc2c(CCNS(=O)(=O)N(C)C)cn(CC(C)C)c2c1 [Example 46, N-{2-[6-(2-methylphenyl)-1-(2-methylpropyl)-1H-indol-3-yl]ethyl}-N,N-dimethylsulfuric diamide] |
| 500 to 3000 | Cc1ccc(-c2ccc3c(CCNS(=O)(=O)N(C)C)cn(CC(C)C)c3c2)cc1 [Example 48, N-{2-[6-(4-methylphenyl)-1-(2-methylpropyl)-1H-indol-3-yl]ethyl}-N,N-dimethylsulfuric diamide] |
| < 500 | CC(C)Cn1cc(CCNS(=O)(=O)N(C)C)c2ccc(-c3cccc([N+](=O)[O-])c3)cc21 [Example 49, N-{2-[6-(3-nitrophenyl)-1-(2-methylpropyl)-1H-indol-3-yl]ethyl}-N,N-dimethylsulfuric diamide] |
| 500 to 3000 | CC(C)Cn1cc(CCNS(=O)(=O)N(C)C)c2ccc(-c3cc(F)cc(F)c3)cc21 [Example 54, N-{2-[6-(3,5-difluorophenyl)-1-(2-methylpropyl)-1H-indol-3-yl]ethyl}-N,N-dimethyl-sulfuric diamide] |
| 500 to 3000 | CC(C)Cn1cc(CCNS(=O)(=O)N(C)C)c2ccc(-c3cccc(-c4ccccc4)c3)cc21 [Example 55, N-{2-[6-([1,1′-biphenyl]-3-yl)-1-(2-methylpropyl)-1H-indol-3-yl]ethyl}-N,N-dimethyl-sulfuric diamide] |
| 500 to 3000 | CC(C)Cn1cc(CCNS(=O)(=O)N(C)C)c2ccc(-c3ccccc3F)cc21 [Example 56, N-{2-[6-(2-fluorophenyl)-1-(2-methylpropyl)-1H-indol-3-yl]ethyl}-N,N-dimethylsulfuric diamide] |
| < 500 | CC(C)Cn1cc(CCNS(=O)(=O)N(C)C)c2ccc(-c3cccc(C#N)c3)cc21 [Example 59, N-{2-[6-(3-cyanophenyl)-1-(2-methylpropyl)-1H-indol-3-yl]ethyl}-N,N-dimethylsulfuric diamide] |
| 500 to 3000 | CC(C)Cn1cc(CCNS(=O)(=O)N(C)C)c2ccc(-c3cccc(S(C)(=O)=O)c3)cc21 [Example 60, N-{2-[6-(3-methylsulfonylphenyl)-1-(2-methylpropyl)-1H-indol-3-yl]ethyl}-N,N-dimethylsulfuric diamide] |
| 500 to 3000 | CC(C)Cn1cc(C2CCCN(S(=O)(=O)N(C)C)C2)c2ccc(-c3ccccc3)cc21 (centres unmarked) [Example 61, 3-(1-isobutyl-6-phenyl-1H-indol-3-yl)-N,N-dimethylpiperidine-1-sulfonamide] |
| > 3000 | CC(C)Cn1cc(-c2cnn(S(=O)(=O)C(C)C)c2)c2ccc(-c3ccccc3)cc21 [Example 63, 1-isobutyl-3-(1-(isopropylsulfonyl)-1H-pyrazol-4-yl)-6-phenyl-1H-indole] |
| 500 to 3000 | CNS(=O)(=O)c1ccccc1-c1ccc2c(CCNS(=O)(=O)N(C)C)cn(CC(C)C)c2c1 [Example 72, N′-{2-[6-(2-N′-methylsulfonamidophenyl)-1-(2-methylpropyl)-1H-indol-3-yl]ethyl}-N,N-dimethylsulfuric diamide] |
| > 3000 | COC(=O)c1ccccc1-c1ccc2c(CCNS(=O)(=O)N(C)C)cn(CC(C)C)c2c1 [Example 73, N′-{2-[6-(2-methyl carbonatephenyl)-1-(2-methylpropyl)-1H-indol-3-yl]ethyl}-N,N-dimethyl sulfuric diamide] |
| > 3000 | CC(C)Cn1cc(CCNS(=O)(=O)N(C)C)c2ccc(-c3ccccc3-c3ccccc3)cc21 [Example 74, N-{2-[6-[(1,1-diphenyl)-2yl]-1-(2-methylpropyl)-1H-indol-3-yl]ethyl}-N,N-dimethylsulfuric diamide] |
| 500 to 3000 | CC(C)Cn1cc(CCNS(=O)(=O)N(C)C)c2ccc(-c3ccccc3CO)cc21 [Example 76, N-{2-[6-(2-hydroxylmethylphenyl)-1-(2-methylpropyl)-1H-indol-3-yl]ethyl}-N,N-dimethyl-sulfuric diamide] |
| 500 to 3000 | CC(C)Cn1cc(CCNS(=O)(=O)N(C)C)c2ccc(-c3ccccc3OCc3ccccc3)cc21 [Example 77, N-{2-[6-(2-benzyloxylphenyl)-1-(2-methylpropyl)-1H-indol-3-yl]ethyl}-N,N-dimethyl-sulfuric diamide] |
| 500 to 3000 | CC(C)Cn1cc(CCNS(=O)(=O)N(C)C)c2ccc(-c3ccccc3C(=O)OC(C)(C)C)cc21 [Example 79] |
| < 500 | Cc1cccc(C)c1-c1ccc2c(CCNS(=O)(=O)N(C)C)cn(CC(C)C)c2c1 [Example 81, N-{2-[6-(2,6-dimethylphenyl)-1-(2-methylpropyl)-1H-indol-3-yl]ethyl}-N,N-dimethyl-sulfuric diamide] |
| > 3000 | CC(C)Cn1cc(-c2cccc(NS(=O)(=O)C(C)C)c2)c2ccc(-c3ccccc3)cc21 [Example 83, N-(3-(1-isobutyl-6-phenyl-1H-indol-3-yl)phenyl)propane-2-sulfonamide] |
| 500 to 3000 | CC(C)Cn1cc(-c2cccc(CNS(=O)(=O)C(C)C)c2)c2ccc(-c3ccccc3)cc21 [Example 86, N-(3-(1-isobutyl-6-phenyl-1H-indol-3-yl)benzyl)propane-2-sulfonamide] |

| EC50 [nM] | Structure (SMILES) |
| --- | --- |
| 500 to 3000 | CC(C)Cn1cc(-c2ccc(CNS(=O)(=O)C(C)C)cc2)c2ccc(-c3ccccc3)cc21 [Example 87, N-(4-(1-isobutyl-6-phenyl-1H-indol-3-yl)benzyl)propane-2-sulfonamide] |
| < 500 | C=C(C)c1ccc2c(CCNS(=O)(=O)N(C)C)cn(CC(C)C)c2c1 [Example 88] |
| 500 to 3000 | CC(C)Cn1cc(CCNS(=O)(=O)N(C)C)c2ccc(-n3cccn3)cc21 [Example 92, N-{2-[6-(1H-pyrazol-1-yl)-1-(2-methylpropyl)-1H-indol-3-yl]ethyl}-N,N-dimethylsulfuric diamide] |
| 500 to 3000 | CC(C)Cn1cc(CCNS(=O)(=O)N(C)C)c2ccc(-n3ccnc3)cc21 [Example 93, N-{2-[6-(1H-imidazol-1-yl)-1-(2-methylpropyl)-1H-indol-3-yl]ethyl}-N,N-dimethylsulfuric diamide] |
| > 3000 | CC(C)Cn1cc(CCNS(=O)(=O)N(C)C)c2ccc(C(C)(C)C)cc21 [Example 106, ({2-[6-tert-butyl-1-(2-methylpropyl)-1H-indol-3-yl]ethyl}sulfamoyl)dimethylamine] |
| 500 to 3000 | CC(C)Cn1cc(CCNS(=O)(=O)N(C)C)c2ccc(C3(O)CCC3)cc21 [Example 107, 1-(3-{2-[(dimethylsulfamoyl)amino]ethyl}-1-(2-methylpropyl)-1H-indol-6-yl)cyclobutan-1-ol] |
| < 500 | CC(C)Cn1cc(CCNS(=O)(=O)N(C)C)c2ccc(C3CCC3)cc21 [Example 108, ({2-[6-cyclobutyl-1-(2-methylpropyl)-1H-indol-3-yl]ethyl}sulfamoyl)dimethylamine] |
| < 500 | CC(C)Cn1cc(CCNS(=O)(=O)N(C)C)c2ccc(Cl)cc21 [Example 109, ({2-[6-chloro-1-(2-methylpropyl)-1H-indol-3-yl]ethyl}sulfamoyl)dimethylamine] |
| 500 to 3000 | CC(C)Cn1cc(CCNS(=O)(=O)N(C)C)c2ccc(F)cc21 [Example 110, ({2-[6-fluoro-1-(2-methylpropyl)-1H-indol-3-yl]ethyl}sulfamoyl)dimethylamine] |
| 500 to 3000 | CC(C)Cn1cc(CCNS(=O)(=O)N(C)C)c2ccc(NC(C)C)cc21 [Example 111, N-{2-[6-isopropylamino-1-(2-methylpropyl)-1H-indol-3-yl]ethyl}-N,N-dimethylsulfuric diamide] |
| > 3000 | CCNc1ccc2c(CCNS(=O)(=O)N(C)C)cn(CC(C)C)c2c1 [Example 112, N′-{2-[6-ethylamino-1-(2-methylpropyl)-1H-indol-3-yl]ethyl}-N,N-dimethylsulfuric diamide] |
| 500 to 3000 | CC(C)Cn1cc(CCNS(=O)(=O)N(C)C)c2ccc(N(C)C)cc21 [Example 113, N′-{2-[6-N,N-dimethylamino-1-(2-methylpropyl)-1H-indol-3-yl]ethyl}-N,N-dimethylsulfuric diamide] |
| 500 to 3000 | CC(C)Cn1cc(CCN(C)S(=O)(=O)N(C)C)c2ccc(N(C)C)cc21 [Example 114, N′-{2-[6-N,N-dimethylamino-1-(2-methylpropyl)-1H-indol-3-yl]ethyl}-N′-methyl-N,N-dimethyl sulfuric diamide] |
| 500 to 3000 | CC(C)Cn1cc(CCNS(=O)(=O)N(C)C)c2ccc(OCc3ccccc3)cc21 [Example 115, N′-{2-[6-benzyloxy-1-(2-methylpropyl)-1H-indol-3-yl]ethyl}-N,N-dimethylsulfuric diamide] |
| > 3000 | CC(C)Cn1cc(CCNS(=O)(=O)N(C)C)c2ccc(O)cc21 [Example 116, N-{2-[6-hydroxy-1-(2-methylpropyl)-1H-indol-3-yl]ethyl}-N,N-dimethylsulfuric diamide] |
| > 3000 | COc1ccc2c(CCN(C)S(=O)(=O)N(C)C)cn(CC(C)C)c2c1 [Example 117, N-{2-[6-methoxyl-1-(2-methylpropyl)-1H-indol-3-yl]ethyl}-N-methyl-N,N-dimethyl sulfuric diamide] |
| 500 to 3000 | CC(C)Cn1cc(CCNS(=O)(=O)N(C)C)c2ccc(OC(C)C)cc21 [Example 118, N′-{2-[6-isopropoxy-1-(2-methylpropyl)-1H-indol-3-yl]ethyl}-N,N-dimethylsulfuric diamide] |
| 500 to 3000 | CC(C)Cn1cc(CCN(C)S(=O)(=O)N(C)C)c2ccc(C(F)(F)F)cc21 [Example 121, dimethyl[methyl({2-[1-(2-methylpropyl)-6-(trifluoromethyl)-1H-indol-3-yl]ethyl})sulfamoyl]amine] |

| Structure (SMILES) | EC50 [nM] |
| --- | --- |
| CC(C)Cn1cc(CCNS(=O)(=O)N(C)C)c2ccc(OC(C)(C)C)cc21 [Example 119, N′-{2-[6-tert-butoxy-1-(2-methylpropyl)-1H-indol-3-yl]ethyl}-N,N-dimethylsulfuric diamide] | 500 to 3000 |
